The term MIC denotes the lowest concentration that inhibits growth of the organism.

Results on seven compounds are retold here after DBAASP.

Assay in all cases: ≥ marks a high value that may be exact or a test limit, other limits are often not marked, values filed in µg/mL are converted to µM
Assay [1] relates to Vibrio fluvialis.
Assay [2] concerns Vibrio parahaemolyticus.
Assay [3] has as its system Staphylococcus aureus.
For assay [4], the system named is Escherichia coli.
For assay [5], the system named is Vibrio alginolyticus.
Assay [6] relates to Streptococcus pyogenes.
Assay [7] relates to Aeromonas hydrophila.
Assay [8] has as its system Staphylococcus aureus CIP 53.156.
The test system of assay [9] is Listeria monocytogenes CIP 110871.
The test system of assay [10] is Escherichia coli CIP 54.8T.
The test system of assay [11] is Enterococcus faecalis CIP 76.117.
In assay [12] the test system is Vibrio vulnificus CIP 109783.
Assay [13] concerns Aeromonas salmonicida CIP 103209T.
Assay [14] relates to Streptococcus iniae KCTC 3657.
The subject of assay [15] is Salmonella enterica subsp. enterica serovar Typhimurium ATCC 14028.
Assay [16] concerns Staphylococcus aureus ATCC 29213.
Assay [17] concerns Bacillus cereus ATCC 10876.
Assay [18] concerns Enterococcus faecalis ATCC 29212.
In assay [19] the test system is Pseudomonas aeruginosa ATCC 27853.
In assay [20] the test system is Staphylococcus aureus ATCC 6538.
In assay [21] the test system is Escherichia coli ATCC 25922.
The subject of assay [22] is Klebsiella pneumoniae.
The test system of assay [23] is Streptococcus equi subsp. zooepidemicus ATCC 43079.
Assay [24] deals with Streptococcus agalactiae ATCC 27956.
Assay [25] has as its system Streptococcus dysgalactiae subsp. dysgalactiae ATCC 27957.
Assay [26] has as its system Escherichia coli BL21(DE3).
The subject of assay [27] is Candida glabrata ATCC 90030.
Assay [28] relates to Candida krusei DSM 70079.
The test system of assay [29] is Candida albicans ATCC 10231.
In assay [30] the test system is Aspergillus niger ATCC 9029.
Assay [31] relates to Aspergillus fumigatus Af293.
Assay [32] has as its system Aspergillus flavus PFCC 100.
The test system of assay [33] is Streptococcus sanguinis.
Assay [34] relates to Listeria monocytogenes.
For assay [35], the system named is Staphylococcus aureus ATCC 25923.
The subject of assay [36] is Staphylococcus aureus BNCC 186335.
Assay [37] concerns Escherichia coli BNCC 133264.
Assay [38] deals with Pseudomonas aeruginosa BNCC 125486.

Converted amounts (≈) assume the structure as drawn. “And” between values parts separate entries of the source, which are not always exact repeats. Identical values can stand only once.

Turning to `CC[C@H](C)[C@H](NC(=O)[C@H](CCCCN)NC(=O)[C@H](Cc1cnc[nH]1)NC(=O)[C@H](CC(C)C)NC(=O)[C@H](CC(C)C)NC(=O)[C@H](Cc1ccccc1)NC(=O)[C@H](CC(N)=O)NC(=O)[C@@H](N)C(C)C)C(=O)N[C@@H](Cc1ccc(O)cc1)C(=O)NCC(=O)N[C@@H](CC(N)=O)C(=O)N[C@H](C(=O)N[C@@H](CCCN=C(N)N)C(=O)N[C@@H](Cc1ccc(O)cc1)C(=O)N[C@@H](CO)C(=O)O)[C@@H](C)CC` [VNFLLHKIYGNIRYS], the MIC in [1] is no less than 34 µM; in [2] it was 17 µM (≈ 31.2 µg/mL); in assay [3] it was 34 µM (≈ 62.5 µg/mL); in [4] it was 2.12 µM (≈ 3.9 µg/mL); in assay [5], 2.12 µM (≈ 3.9 µg/mL); in assay [6] it was no less than 34 µM. The same compound gave an MIC in assay [7] of 2.12 µM (≈ 3.9 µg/mL).

In the case of `CC[C@H](C)[C@H](NC(=O)[C@H](CC(C)C)NC(=O)[C@H](CC(=O)O)NC(=O)[C@H](Cc1cnc[nH]1)NC(=O)[C@@H](NC(=O)[C@H](CO)NC(=O)[C@H](CCCCN)NC(=O)CNC(=O)[C@@H](NC(=O)[C@H](Cc1cnc[nH]1)NC(=O)[C@H](Cc1ccccc1)NC(=O)[C@H](CC(C)C)NC(=O)CNC(=O)CNC(=O)[C@@H](NC(=O)[C@@H](NC(=O)[C@H](Cc1cnc[nH]1)NC(=O)[C@H](Cc1cnc[nH]1)NC(=O)[C@@H](NC(=O)[C@@H](N)Cc1ccccc1)[C@@H](C)CC)[C@@H](C)CC)[C@@H](C)CC)C(C)C)[C@@H](C)CC)C(=O)N[C@@H](CCCN=C(N)N)C(=O)O` [FIHHIIGGLFHVGKSIHDLIR], the minimum inhibitory concentration (MIC) in [8] was 7.07 µM (≈ 17 µg/mL); in assay [9] it was 15.8 µM (≈ 38.1 µg/mL); in assay [10], 15.8 µM (≈ 38.1 µg/mL); in assay [11] it was 15.8 µM (≈ 38.1 µg/mL); in assay [12], no less than 35.4 µM; in assay [13], 7.07 µM (≈ 17 µg/mL).

Take `CC[C@H](C)[C@H](NC(=O)[C@H](CCCN=C(N)N)NC(=O)[C@H](Cc1c[nH]c2ccccc12)NC(=O)CNC(=O)[C@H](Cc1ccc(O)cc1)NC(=O)[C@H](CCCN=C(N)N)NC(=O)[C@H](CCCN=C(N)N)NC(=O)[C@H](C)NC(=O)[C@H](Cc1ccccc1)NC(=O)[C@H](CCCN=C(N)N)NC(=O)CNC(=O)[C@H](C)NC(=O)CNC(=O)[C@H](CCCN=C(N)N)NC(=O)[C@@H](NC(=O)[C@H](Cc1ccccc1)NC(=O)[C@H](CCCN=C(N)N)NC(=O)[C@H](CCCN=C(N)N)NC(=O)[C@H](Cc1c[nH]c2ccccc12)NC(=O)[C@H](CCCN=C(N)N)NC(=O)[C@H](CO)NC(=O)[C@H](CCCN=C(N)N)NC(=O)[C@@H](N)[C@@H](C)O)[C@@H](C)CC)C(=O)N[C@@H](C)C(=O)O` [TRSRWRRFIRGAGRFARRYGWRIA]: the MIC is 10.5 µM (≈ 32 µg/mL) in assay [14]; 0.164 µM (≈ 0.5 µg/mL) in assay [15]; greater than 41.9 µM in [16]; 3.28 µM (≈ 10 µg/mL) in assay [17]; 13.1 µM (≈ 40 µg/mL) in assay [18]; 0.983 µM (≈ 3 µg/mL) in assay [19]. The MIC in assay [20] amounted to 1.3 µM (≈ 3.97 µg/mL); in assay [21], 0.328 µM (≈ 1 µg/mL); in assay [4], 1.54 µM (≈ 4.7 µg/mL); in assay [22], 0.387 µM (≈ 1.18 µg/mL); in [23], 6.6 µM (≈ 20.1 µg/mL); in assay [24], 13.1 µM (≈ 40 µg/mL). In assay [25], this compound gave an MIC of 13.1 µM (≈ 40 µg/mL).

Regarding `CC[C@H](C)[C@H](NC(=O)[C@H](CC(C)C)NC(=O)[C@H](CCCN=C(N)N)NC(=O)[C@@H](NC(=O)[C@H](CC(C)C)NC(=O)[C@H](CCCN=C(N)N)NC(=O)[C@@H](N)CCCN=C(N)N)[C@@H](C)CC)C(=O)N[C@@H](CC(C)C)C(=O)N[C@@H](CCCN=C(N)N)C(=O)N[C@@H](CC(C)C)C(=O)N[C@@H](CC(C)C)C(=O)N[C@@H](CCCN=C(N)N)C(N)=O` [RRLIRLILRLLR], in assay [26], the MIC was 4 µM and 8 µM.

Regarding `CC[C@H](C)[C@H](NC(=O)CNC(=O)[C@@H](NC(=O)[C@H](Cc1ccccc1)NC(=O)[C@H](C)NC(=O)[C@H](CCCCN)NC(=O)[C@@H](NC(=O)[C@H](CO)NC(=O)[C@@H](N)CC(C)C)C(C)C)[C@@H](C)O)C(=O)N[C@@H](CCC(N)=O)C(=O)N[C@@H](CC(C)C)C(=O)N[C@@H](CCCN=C(N)N)C(=O)NCC(=O)N[C@H](C(=O)N[C@@H](CS)C(=O)NCC(=O)N[C@H](C(=O)N[C@@H](CCC(=O)O)C(=O)N[C@H](C(=O)N[C@@H](CCCCN)C(=O)N[C@@H](C)C(=O)N[C@@H](CCCN=C(N)N)C(=O)NCC(=O)O)C(C)C)[C@@H](C)CC)C(C)C` [LSVKAFTGIQLRGVCGIEVKARG], the MIC came to 3.33 µM (≈ 8 µg/mL) in assay [27]; 6.66 µM (≈ 16 µg/mL) in [28]; 6.66 µM (≈ 16 µg/mL) in [29]; 6.66 µM (≈ 16 µg/mL) in assay [30]; 6.66 µM (≈ 16 µg/mL) in assay [31]; 13.3 µM (≈ 32 µg/mL) in [32].

Consider `NC(=O)[C@H](Cc1ccccc1)NC(=O)[C@H](Cc1ccccc1)NC(=O)[C@H](Cc1ccccc1)NC(=O)[C@H](Cc1ccccc1)NC(=O)[C@@H](N)Cc1ccccc1` [FFFFF], for which the MIC in [33] was no less than 36.3 µM; in assay [3], 33.8 µM (≈ 25.5 µg/mL).

With `CC[C@H](C)[C@H](NC(=O)[C@H](CCCCN)NC(=O)[C@H](CC(N)=O)NC(=O)[C@H](CC(C)C)NC(=O)[C@@H](NC(=O)[C@H](CCCCN)NC(=O)[C@@H]1CCCN1)[C@@H](C)CC)C(=O)N[C@@H](CC(C)C)C(=O)NCC(=O)N[C@@H](CCCCN)C(=O)N[C@H](C(=O)N[C@@H](CC(C)C)C(=O)N[C@@H](CCCN=C(N)N)C(=O)N[C@@H](CC(C)C)C(=O)N[C@@H](C)C(=O)N[C@@H](C)C(=O)N[C@@H](C)C(=O)N[C@@H](Cc1ccccc1)C(=O)N[C@@H](CCCCN)C(N)=O)[C@@H](C)CC` [PKILNKILGKILRLAAAFK], the MIC came to 1.9 µM (≈ 4 µg/mL) in [34]; 3 µM (≈ 6.32 µg/mL) in [35]; 0.949 µM (≈ 2 µg/mL) in assay [36]; 1.9 µM (≈ 4 µg/mL) in assay [37]; 1.5 µM (≈ 3.16 µg/mL) in assay [19]; 1.5 µM (≈ 3.16 µg/mL) in assay [21]. In addition, the MIC turned out to be 1.9 µM (≈ 4 µg/mL) in [38], 1.9 µM (≈ 4 µg/mL) in [4] and 6.25 µM (≈ 13.2 µg/mL) in assay [22].
